Measurements reported in the supplement of paper PMC10307832.

Experiments:
Test in all cases: relative viability (nuclei count vs DMSO), 5 days (fraction); higher = more cells survive
[1] = compound: COc1ncc(-c2ccc3nccc(-c4ccnnc4)c3c2)cc1NS(=O)(=O)c1ccc(F)cc1F [Omipalisib] + CC1(C)CCC(c2ccc(Cl)cc2)=C(CN2CCN(c3ccc(C(=O)NS(=O)(=O)c4ccc(N[C@H](CCN5CCOCC5)CSc5ccccc5)c(S(=O)(=O)C(F)(F)F)c4)cc3)CC2)C1 [Navitoclax] (partner 0.5 µM)
Method in brief: (§1)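 Relative viability equals treated-well nuclei counts divided by vehicle-well nuclei counts. Counts came from 4× images of lung cancer cell lines grown in 1536-well plates for 5 days after pin-tool dosing on the day after seeding. Dosing used one drug alone or a fixed anchor-drug dose plus five library-drug doses (not always all listed) in √10 steps, and values are medians of duplicate plates.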

[2] = compound: COc1ncc(-c2ccc3nccc(-c4ccnnc4)c3c2)cc1NS(=O)(=O)c1ccc(F)cc1F [Omipalisib] + Nc1nc2[nH]cc(CCc3ccc(C(=O)N[C@@H](CCC(=O)O)C(=O)O)cc3)c2c(=O)[nH]1 [Pemetrexed] (partner 0.2 µM)
Method in brief: as §1

[3] = compound: COc1ncc(-c2ccc3nccc(-c4ccnnc4)c3c2)cc1NS(=O)(=O)c1ccc(F)cc1F [Omipalisib] + O=C(c1cc(Cc2n[nH]c(=O)c3ccccc23)ccc1F)N1CCN(C(=O)C2CC2)CC1 [Olaparib] (partner 8 µM)
Method in brief: as §1

[4] = compound: COc1ncc(-c2ccc3nccc(-c4ccnnc4)c3c2)cc1NS(=O)(=O)c1ccc(F)cc1F [Omipalisib] + COc1cccc2cc(-c3nc([C@H]4CC[C@H](C(=O)O)CC4)n4ncnc(N)c34)[nH]c12 [OSI-027] (partner 0.5 µM)
Method in brief: as §1

[5] = compound: COc1ncc(-c2ccc3nccc(-c4ccnnc4)c3c2)cc1NS(=O)(=O)c1ccc(F)cc1F [Omipalisib] + CCNC(=O)c1noc(-c2cc(C(C)C)c(O)cc2O)c1-c1ccc(CN2CCOCC2)cc1 [Luminespib] (partner 0.01 µM)
Method in brief: as §1

[6] = compound: COc1ncc(-c2ccc3nccc(-c4ccnnc4)c3c2)cc1NS(=O)(=O)c1ccc(F)cc1F [Omipalisib] + Cc1nc(NC(=O)N2CCC[C@H]2C(N)=O)sc1-c1ccnc(C(C)(C)C(F)(F)F)c1 [Alpelisib] (partner 2 µM)
Method in brief: as §1

Row | Cell Line | relative viability ([1]; first compound 0.0003 µM) | relative viability ([1]; first compound 0.003 µM) | relative viability ([1]; first compound 0.03 µM) | relative viability ([2]; first compound 0.0003 µM) | relative viability ([2]; first compound 0.003 µM) | relative viability ([2]; first compound 0.03 µM) | relative viability ([3]; first compound 0.0003 µM) | relative viability ([3]; first compound 0.003 µM) | relative viability ([3]; first compound 0.03 µM) | relative viability ([4]; first compound 0.0003 µM) | relative viability ([4]; first compound 0.003 µM) | relative viability ([4]; first compound 0.03 µM) | relative viability ([5]; first compound 0.0003 µM) | relative viability ([5]; first compound 0.003 µM) | relative viability ([5]; first compound 0.03 µM) | relative viability ([6]; first compound 0.0003 µM) | relative viability ([6]; first compound 0.003 µM) | relative viability ([6]; first compound 0.03 µM)
1 | NCI-H2126 | 0.82 | 0.594 | 0.375 | 0.652 | 0.537 | 0.38 | 0.888 | 0.725 | 0.412 | 0.71 | 0.488 | 0.411 | 0.825 | 0.567 | 0.338 | 0.696 | 0.583 | 0.474
2 | NCI-H1915 | 0.813 | 0.768 | 0.789 | 0.545 | 0.534 | 0.509 | 0.288 | 0.267 | 0.244 | 0.618 | 0.473 | 0.574 | 0.677 | 0.766 | 0.579 | 0.994 | 1.07 | 1.03
3 | NCI-H441 | 0.547 | 0.527 | 0.552 | 0.294 | 0.283 | 0.237 | 0.55 | 0.321 | 0.37 | 0.642 | 0.35 | 0.26 | 0.207 | 0.28 | 0.234 | 0.585 | 0.588 | 0.441
4 | NCI-H1437 | 1.03 | 0.974 | 0.517 | 0.276 | 0.298 | 0.27 | 0.673 | 0.603 | 0.537 | 0.854 | 0.639 | 0.323 | 1.15 | 1.02 | 0.926 | 0.92 | 0.707 | 0.45
